14 compounds from ChEMBL document CHEMBL1933021, “Novel and selective spiroindoline-based inhibitors of Sky kinase” (Bioorg Med Chem Lett, 2012) can be followed below.

Values after ≈ are worked out from the molar mass of the structure shown. Active and inactive are the calls of the source. No cut-off for these calls is given here.

The test system of data set [1] is Tyro3 (Mus musculus). In words: Inhibition of mouse Sky kinase assessed as inhibition of src substrate phosphorylation by ELISA.
Data set [2] can be described thus: Aqueous solubility of compound at pH 6.5. The class given is physicochemical.
A short description of data set [3]: Permeability of the compound by PAMPA assay. In kind it is ADME. As to conditions: read-out: permeability.
Data set [4] in a line: Half life in human liver microsomes. The class given is ADME, Microsome.
The target in data set [5] is Cytochrome P450 2D6 (Homo sapiens, UniProt P10635). The experiment in a line: Inhibition of CYP2D6 using dextromethorphan as substrate. The class given is ADME.
Sequence of Cytochrome P450 2D6 (P10635 whole entry): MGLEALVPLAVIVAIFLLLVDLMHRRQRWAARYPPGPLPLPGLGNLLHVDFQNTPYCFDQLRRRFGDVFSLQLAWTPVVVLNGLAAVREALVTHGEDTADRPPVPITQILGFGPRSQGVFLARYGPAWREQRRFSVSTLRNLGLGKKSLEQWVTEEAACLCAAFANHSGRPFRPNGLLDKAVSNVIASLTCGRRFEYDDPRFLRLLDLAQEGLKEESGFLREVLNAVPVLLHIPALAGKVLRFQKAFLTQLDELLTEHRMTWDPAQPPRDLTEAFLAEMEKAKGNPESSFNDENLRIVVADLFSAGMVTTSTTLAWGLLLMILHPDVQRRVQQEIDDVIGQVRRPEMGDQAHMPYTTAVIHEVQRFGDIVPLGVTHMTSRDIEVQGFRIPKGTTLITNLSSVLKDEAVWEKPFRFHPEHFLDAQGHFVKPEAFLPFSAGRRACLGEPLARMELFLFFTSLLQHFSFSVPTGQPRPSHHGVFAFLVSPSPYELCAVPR
Data set [6] can be described thus: Half life in po dosed Sprague-Dawley rat. In kind it is ADME, organism-based. As to conditions: in vivo.
Data set [7] in a line: Clearance in po dosed Sprague-Dawley rat. The class given is ADME, organism-based. The conditions noted are these: in vivo.
In data set [8] the test system is Rattus norvegicus. In words: Volume of distribution at steady state in po dosed Sprague-Dawley rat. The conditions noted are these: in vivo. In kind it is ADME, organism-based.
A short description of data set [9]: Oral bioavailability in Sprague-Dawley rat. In kind it is ADME, organism-based. As to conditions: in vivo.

Consider `Cc1ccc(N2CC[C@]3(C2)CN(C(=O)c2cc4cc(F)ccc4[nH]2)c2ccccc23)cn1`, for which, in data set [1], the inhibition entry is “Active”.
For the compound `NC(=O)c1ccc2cc(C(=O)N3C[C@@]4(CCN(C5CCNC5)C4)c4ccccc43)[nH]c2c1` (stereo partly specified), the inhibition result in data set [1] was “Active”.
Still for that read-out and setting: under `O=C(c1cc2cc(Cl)ccc2[nH]1)N1C[C@@]2(CCN(C3CCNC3)C2)c2ccccc21` (stereo partly specified) stands “Active”; under `O=C(c1cc2cc(F)ccc2[nH]1)N1C[C@@]2(CCN(C3CCCCC3)C2)c2ccccc21`, “Active”.
The same measure, in the same setting: the same measure for `COc1ccc2cc(C(=O)N3C[C@@]4(CCN(C5CCNC5)C4)c4ccccc43)[nH]c2c1` (stereo partly specified): “Active”; for `O=C(c1cc2cc(F)ccc2[nH]1)N1C[C@@]2(CCN(C3CNC3)C2)c2ccccc21`: “Active”; for `CCN1CCCC(N2CC[C@@]3(CN(C(=O)c4cc5cc(F)ccc5[nH]4)c4ccccc43)C2)C1` (stereo partly specified): “Active”.
For the compound `O=C(c1cc2cc(Cl)ccc2[nH]1)N1C[C@@]2(CCN(C3CCNCC3)C2)c2ccccc21`, the inhibition entry in [1] is “Active”.
Regarding `O=C(c1cc2cc(F)ccc2[nH]1)N1C[C@@]2(CCN(CC3CCCNC3)C2)c2ccccc21` (stereo partly specified), the inhibition entry in [1] was “Active”.
The same measure, in the same setting: the same measure for `O=C(c1cc2cc(Cl)ccc2[nH]1)N1C[C@@]2(CCN(C3CCCNC3)C2)c2ccccc21` (stereo partly specified): “Active”; for `Cc1ccc2[nH]c(C(=O)N3C[C@@]4(CCN(C5CCNC5)C4)c4ccccc43)cc2c1` (stereo partly specified): “Active”.
For `O=C(c1cc2cc(Cl)ccc2[nH]1)N1C[C@]2(CCN(C3CCNC3)C2)c2ccccc21` (stereo partly specified), the solubility in data set [2] was determined as 5.2 µM (≈ 2.19 µg/mL). The Papp in data set [3] was found to be 0.03 ×10⁻⁶ cm/s. The half-life in data set [4] is 1 h; in data set [6], 3.1 h. Also, it took 14 nM to reach half-maximal inhibition in [5] (IC50). Further, the CL/F in data set [7] stood at 60 mL/min/kg. The Vdss in [8] was 13 L/kg. In data set [9], the bioavailability is 14%.
For the compound `COc1ccc2[nH]c(C(=O)N3C[C@@]4(CCN(C5CCNC5)C4)c4ccccc43)cc2c1` (stereo partly specified), the inhibition entry in data set [1] was “Active”.
For `O=C(c1cc2c(Cl)cccc2[nH]1)N1C[C@@]2(CCN(C3CCNC3)C2)c2ccccc21` (stereo partly specified), in data set [1], the inhibition entry is “Active”.
